Reference: ChEMBL document CHEMBL1137276, “Discovery of potent, selective, and orally bioavailable oxadiazole-based dipeptidyl peptidase IV inhibitors” (Bioorg Med Chem Lett, 2006)

Columns and labels:
Dipeptidyl peptidase 9 = Dipeptidyl peptidase 9 (Homo sapiens, UniProt Q86TI2); assay: Inhibition of DPP9
Dipeptidyl peptidase 8 = Dipeptidyl peptidase 8 (Homo sapiens, UniProt Q6V1X1); assay: Inhibition of DPP8
Dipeptidyl peptidase 2 = Dipeptidyl peptidase 2 (Homo sapiens, UniProt Q9UHL4); assay: Inhibition of QPP
Dipeptidyl peptidase 4 = Dipeptidyl peptidase 4 (Homo sapiens, UniProt P27487); assay: Inhibition of DPP4
[1] = Plasma clearance in rat at 1 mg/kg, iv and 2 mg/kg, po; type: ADME, organism-based
[2] = Oral bioavailability in rat at 1 mg/kg, iv and 2 mg/kg, po; type: ADME, organism-based; settings: in vivo
[3] = biological target: Voltage-gated inwardly rectifying potassium channel KCNH2 (Homo sapiens, UniProt Q12809); assay: Inhibition of hERG potassium channel; type: toxicity
[4] = Half life in rat at 1 mg/kg, iv and 2 mg/kg, po; type: ADME, organism-based; settings: in vivo
[5] = Half life in dog; type: ADME, organism-based, Canis lupus familiaris; settings: in vivo
[6] = Oral bioavailability in dog; type: ADME, organism-based, Canis lupus familiaris; settings: in vivo
Homo sapiens = species: Homo sapiens; assay: Selectivity for DPP4 over QPP

Chain of Dipeptidyl peptidase 4 (P27487 whole entry): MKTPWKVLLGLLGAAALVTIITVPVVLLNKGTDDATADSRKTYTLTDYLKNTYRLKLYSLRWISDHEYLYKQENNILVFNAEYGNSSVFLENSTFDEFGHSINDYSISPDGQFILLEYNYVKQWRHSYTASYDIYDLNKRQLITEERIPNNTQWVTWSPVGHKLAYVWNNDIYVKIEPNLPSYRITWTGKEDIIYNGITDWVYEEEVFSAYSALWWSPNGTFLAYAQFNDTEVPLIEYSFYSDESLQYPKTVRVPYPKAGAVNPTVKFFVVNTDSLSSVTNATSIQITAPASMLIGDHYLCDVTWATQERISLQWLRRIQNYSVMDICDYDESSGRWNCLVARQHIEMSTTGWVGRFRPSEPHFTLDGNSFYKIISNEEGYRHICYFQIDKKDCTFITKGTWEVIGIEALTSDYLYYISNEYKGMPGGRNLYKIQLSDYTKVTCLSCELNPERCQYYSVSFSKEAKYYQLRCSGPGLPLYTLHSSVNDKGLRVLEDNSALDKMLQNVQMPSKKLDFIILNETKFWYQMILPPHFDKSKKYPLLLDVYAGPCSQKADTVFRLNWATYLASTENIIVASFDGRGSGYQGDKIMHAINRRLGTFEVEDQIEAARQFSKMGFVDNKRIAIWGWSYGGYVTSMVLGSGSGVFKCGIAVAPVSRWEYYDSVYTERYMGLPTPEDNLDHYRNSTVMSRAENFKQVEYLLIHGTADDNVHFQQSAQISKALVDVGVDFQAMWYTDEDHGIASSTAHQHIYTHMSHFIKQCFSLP
Chain of Dipeptidyl peptidase 9 (Q86TI2 whole entry): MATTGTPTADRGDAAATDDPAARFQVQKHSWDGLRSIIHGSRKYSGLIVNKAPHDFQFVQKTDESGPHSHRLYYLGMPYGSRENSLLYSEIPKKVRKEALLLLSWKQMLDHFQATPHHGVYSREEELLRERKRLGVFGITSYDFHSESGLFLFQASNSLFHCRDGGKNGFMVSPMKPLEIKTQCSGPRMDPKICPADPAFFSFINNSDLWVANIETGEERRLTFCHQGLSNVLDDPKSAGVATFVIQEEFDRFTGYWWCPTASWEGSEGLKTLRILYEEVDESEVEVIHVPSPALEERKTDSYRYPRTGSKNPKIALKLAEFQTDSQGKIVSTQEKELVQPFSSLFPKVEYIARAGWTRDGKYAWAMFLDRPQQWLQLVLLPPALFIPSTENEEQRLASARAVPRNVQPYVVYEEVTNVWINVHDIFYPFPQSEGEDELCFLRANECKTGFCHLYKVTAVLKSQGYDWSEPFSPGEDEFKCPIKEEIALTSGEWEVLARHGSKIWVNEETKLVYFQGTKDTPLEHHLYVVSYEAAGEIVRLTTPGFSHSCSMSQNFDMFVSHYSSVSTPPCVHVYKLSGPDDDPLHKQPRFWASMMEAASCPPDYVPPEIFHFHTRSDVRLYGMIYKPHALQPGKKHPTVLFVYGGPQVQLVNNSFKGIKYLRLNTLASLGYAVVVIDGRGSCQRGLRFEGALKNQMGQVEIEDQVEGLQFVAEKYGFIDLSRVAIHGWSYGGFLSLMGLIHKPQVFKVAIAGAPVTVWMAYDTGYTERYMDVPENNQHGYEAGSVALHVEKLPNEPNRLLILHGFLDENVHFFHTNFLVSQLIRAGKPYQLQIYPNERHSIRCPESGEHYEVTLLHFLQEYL
Chain of Dipeptidyl peptidase 8 (Q6V1X1 whole entry): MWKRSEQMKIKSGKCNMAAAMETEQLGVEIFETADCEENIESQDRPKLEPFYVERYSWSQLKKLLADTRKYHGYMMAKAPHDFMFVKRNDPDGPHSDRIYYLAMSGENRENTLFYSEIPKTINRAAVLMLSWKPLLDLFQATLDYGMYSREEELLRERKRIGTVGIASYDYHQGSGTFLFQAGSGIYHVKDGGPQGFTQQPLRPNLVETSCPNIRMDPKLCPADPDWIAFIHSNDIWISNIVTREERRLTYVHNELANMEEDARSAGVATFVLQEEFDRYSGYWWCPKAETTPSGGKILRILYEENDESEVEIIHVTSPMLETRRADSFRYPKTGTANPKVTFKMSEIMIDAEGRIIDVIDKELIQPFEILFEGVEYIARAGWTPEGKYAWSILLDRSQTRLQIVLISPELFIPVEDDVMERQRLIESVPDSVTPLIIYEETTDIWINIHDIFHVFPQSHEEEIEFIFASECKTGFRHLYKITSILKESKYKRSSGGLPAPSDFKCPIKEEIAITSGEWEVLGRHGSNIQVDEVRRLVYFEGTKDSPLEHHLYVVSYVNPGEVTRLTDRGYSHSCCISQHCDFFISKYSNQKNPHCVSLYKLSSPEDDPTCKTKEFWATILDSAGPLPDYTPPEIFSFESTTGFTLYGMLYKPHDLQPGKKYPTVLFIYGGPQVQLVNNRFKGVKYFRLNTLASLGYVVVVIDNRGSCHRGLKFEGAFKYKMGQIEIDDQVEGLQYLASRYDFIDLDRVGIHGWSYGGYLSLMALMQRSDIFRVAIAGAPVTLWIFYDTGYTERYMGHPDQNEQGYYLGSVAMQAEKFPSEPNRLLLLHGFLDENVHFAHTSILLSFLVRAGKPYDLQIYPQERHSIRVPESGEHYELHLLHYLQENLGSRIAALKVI
Chain of Voltage-gated inwardly rectifying potassium channel KCNH2 (Q12809 whole entry): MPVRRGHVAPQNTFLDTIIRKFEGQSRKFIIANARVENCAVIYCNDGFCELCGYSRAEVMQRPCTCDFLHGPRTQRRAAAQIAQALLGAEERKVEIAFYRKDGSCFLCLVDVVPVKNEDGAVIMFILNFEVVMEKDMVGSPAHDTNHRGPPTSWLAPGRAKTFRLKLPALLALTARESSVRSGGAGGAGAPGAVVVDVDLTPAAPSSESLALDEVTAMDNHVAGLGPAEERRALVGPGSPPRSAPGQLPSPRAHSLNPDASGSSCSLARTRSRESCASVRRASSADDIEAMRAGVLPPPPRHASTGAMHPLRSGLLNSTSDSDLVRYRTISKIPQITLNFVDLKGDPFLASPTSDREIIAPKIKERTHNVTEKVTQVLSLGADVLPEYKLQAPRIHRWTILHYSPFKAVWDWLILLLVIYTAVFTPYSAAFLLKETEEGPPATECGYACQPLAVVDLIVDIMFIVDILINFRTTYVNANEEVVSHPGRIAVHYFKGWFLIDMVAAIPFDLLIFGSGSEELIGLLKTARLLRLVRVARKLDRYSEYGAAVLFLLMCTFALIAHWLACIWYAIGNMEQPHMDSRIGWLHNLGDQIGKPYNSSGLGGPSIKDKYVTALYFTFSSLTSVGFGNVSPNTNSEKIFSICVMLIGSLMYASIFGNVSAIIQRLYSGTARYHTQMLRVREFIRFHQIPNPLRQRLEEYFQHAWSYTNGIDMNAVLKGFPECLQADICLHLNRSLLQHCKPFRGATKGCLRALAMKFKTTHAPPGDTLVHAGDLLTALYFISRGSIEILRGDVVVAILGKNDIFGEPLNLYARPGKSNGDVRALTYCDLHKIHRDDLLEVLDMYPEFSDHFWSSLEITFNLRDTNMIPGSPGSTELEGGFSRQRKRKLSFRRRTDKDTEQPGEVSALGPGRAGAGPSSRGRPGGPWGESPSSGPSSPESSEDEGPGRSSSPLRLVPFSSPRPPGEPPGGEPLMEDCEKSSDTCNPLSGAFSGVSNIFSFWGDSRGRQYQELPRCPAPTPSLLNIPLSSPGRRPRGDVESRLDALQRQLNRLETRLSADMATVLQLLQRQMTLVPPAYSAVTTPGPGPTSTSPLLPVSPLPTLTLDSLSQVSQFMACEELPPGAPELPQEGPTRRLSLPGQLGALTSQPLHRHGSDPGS

| SMILES | IC50 (Dipeptidyl peptidase 9) | IC50 (Dipeptidyl peptidase 8) | IC50 (Dipeptidyl peptidase 2) | IC50 (Dipeptidyl peptidase 4) | clearance [1] | bioavailability [2] | half-life [4] | half-life [5] | bioavailability [6] | Ratio IC50 (Homo sapiens) | IC50 [3] |
| --- | --- | --- | --- | --- | --- | --- | --- | --- | --- | --- | --- |
| C[C@H](c1nc(-c2ccc(NS(C)(=O)=O)cc2Cl)no1)[C@H](N)C(=O)N1CCCC1 | > 100 µM | > 100 µM | 1.4 µM | 0.008 µM |  |  |  |  |  |  |  |
| C[C@H](c1nc(-c2ccc(S(C)(=O)=O)cc2Cl)no1)[C@H](N)C(=O)N1CCCC1 | > 100 µM | > 100 µM |  |  | 6 mL/min/kg | 27% | 0.82 h |  |  |  |  |
| C[C@H](c1nc(-c2ccc(S(C)(=O)=O)cc2Cl)no1)[C@H](N)C(=O)N1CC[C@H](F)C1 | > 100 µM | > 100 µM |  |  |  |  |  |  |  |  |  |
| CS(=O)(=O)c1ccc(-c2noc([C@@H](CC3CC3)[C@H](N)C(=O)N3CC[C@H](F)C3)n2)c(F)c1.O=C(O)C(F)(F)F | > 100 µM | > 100 µM |  |  | 18.7 mL/min/kg | 36% | 1.3 h | 1.75 h | 95% |  | 58.5 µM |
| C[C@H](c1n[nH]c(-c2ccc(Cl)cc2Cl)n1)[C@H](N)C(=O)N1CCCC1 | > 100 µM | > 100 µM | 5.41 µM | 3.05 µM |  |  |  |  |  |  |  |
| C[C@H](c1nc(-c2ccc(Cl)cc2Cl)co1)[C@H](N)C(=O)N1CCCC1 | > 100 µM | > 100 µM | 1.05 µM | 1.83 µM |  |  |  |  |  |  |  |
| C[C@H](c1nc(-c2ccc(S(N)(=O)=O)cc2)no1)[C@H](N)C(=O)N1CCCC1 | > 100 µM | > 100 µM | 26.8 µM | 0.19 µM |  |  |  |  |  |  |  |
| C[C@H](c1noc(-c2ccc(Cl)cc2Cl)n1)[C@H](N)C(=O)N1CCCC1 | > 100 µM | > 100 µM | 4.2 µM | 1.21 µM |  |  |  |  |  |  |  |
| C[C@H](c1nc(-c2ccc(NS(C)(=O)=O)cc2Cl)no1)[C@H](N)C(=O)N1CC[C@H](F)C1 | > 100 µM | > 100 µM | 2.57 µM | 0.019 µM |  |  |  |  |  |  |  |
| CC(C)C[C@H](c1nc(-c2ccc(S(C)(=O)=O)cc2Cl)no1)[C@H](N)C(=O)N1CC[C@H](F)C1 | > 100 µM | > 100 µM | 3.7 µM | 0.013 µM |  |  |  |  |  |  |  |
| C[C@H](c1nc(-c2ccc(NS(C)(=O)=O)cc2Cl)no1)[C@H](N)C(=O)N1CC[C@@H](F)C1 | > 100 µM | > 100 µM | 1.7 µM | 0.019 µM |  |  |  |  |  |  |  |
| C[C@H](c1nc(-c2ccc(NS(C)(=O)=O)cc2Cl)no1)[C@H](N)C(=O)N1CCC(F)(F)C1 | > 100 µM | > 100 µM | 0.16 µM | 0.019 µM |  |  |  |  |  |  |  |
| Cc1cc(S(C)(=O)=O)ccc1-c1noc([C@@H](CC2CC2)[C@H](N)C(=O)N2CC[C@H](F)C2)n1 | > 100 µM | > 100 µM | 2.92 µM | 0.031 µM |  |  |  |  |  |  |  |
| CS(=O)(=O)c1ccc(-c2noc([C@@H](CCO)[C@H](N)C(=O)N3CC[C@H](F)C3)n2)c(Cl)c1 | > 100 µM | > 100 µM |  |  |  |  |  |  |  |  |  |
| C[C@H](c1nnc(-c2ccc(Cl)cc2Cl)o1)[C@H](N)C(=O)N1CCCC1 | > 100 µM | > 100 µM | 0.85 µM | 0.56 µM |  |  |  |  |  |  |  |
| CS(=O)(=O)c1ccc(-c2noc([C@@H](CC3CC3)[C@H](N)C(=O)N3CC[C@H](F)C3)n2)c(Cl)c1 | > 100 µM | > 100 µM |  |  |  |  |  |  |  |  |  |
| CS(=O)(=O)c1ccc(-c2noc([C@@H](CC3CC3)[C@H](N)C(=O)N3CC[C@H](F)C3)n2)cc1.O=C(O)C(F)(F)F | > 100 µM | > 100 µM | 20.4 µM | 0.052 µM | 11.2 mL/min/kg | 49% | 1.8 h |  |  |  |  |
| C[C@H](c1nc(-c2ccc(Cl)cc2)no1)[C@H](N)C(=O)N1CCCC1 | > 100 µM | > 100 µM | 3.8 µM | 3.82 µM |  |  |  |  |  |  |  |
| C[C@H](c1nc(-c2ccc(NS(C)(=O)=O)cc2)no1)[C@H](N)C(=O)N1CCCC1 | > 100 µM | > 100 µM | 5.4 µM | 0.52 µM |  |  |  |  |  |  |  |
| C[C@H](c1nc(-c2ccc(S(C)(=O)=O)cc2F)no1)[C@H](N)C(=O)N1CCCC1 | > 100 µM | > 100 µM | 14.1 µM | 0.043 µM |  |  |  |  |  | > 320 |  |
| C[C@H](c1nc(-c2cc(Cl)cc(Cl)c2)no1)[C@H](N)C(=O)N1CCCC1 | > 100 µM | > 100 µM | 2.5 µM | 7.36 µM |  |  |  |  |  |  |  |
| C[C@H](c1nc(-c2ccc(S(C)(=O)=O)cc2)no1)[C@H](N)C(=O)N1CCCC1 | > 100 µM | > 100 µM |  |  |  |  |  |  |  |  |  |

Second part, led by results:

| IC50 (Dipeptidyl peptidase 9) | IC50 (Dipeptidyl peptidase 8) | IC50 (Dipeptidyl peptidase 2) | IC50 (Dipeptidyl peptidase 4) | clearance [1] | bioavailability [2] | half-life [4] | half-life [5] | bioavailability [6] | Ratio IC50 (Homo sapiens) | SMILES | IC50 [3] |
| --- | --- | --- | --- | --- | --- | --- | --- | --- | --- | --- | --- |
| > 100 µM | > 100 µM | 2.5 µM | 12.4 µM |  |  |  |  |  |  | C[C@H](c1nc(-c2ccccc2OC(F)(F)F)no1)[C@H](N)C(=O)N1CCCC1 |  |
| > 100 µM | > 100 µM |  |  | 13.8 mL/min/kg | 35% | 2.71 h |  |  |  | C[C@H](c1nc(-c2ccc(Cl)cc2Cl)no1)[C@H](N)C(=O)N1CCCC1.O=C(O)C(F)(F)F | 36.7 µM |
| > 100 µM | > 100 µM | 1 µM | 1.82 µM |  |  |  |  |  |  | C[C@H](c1nc(-c2ccccc2C(F)F)no1)[C@H](N)C(=O)N1CCCC1 |  |
| > 100 µM | > 100 µM | 4.3 µM | 15.6 µM |  |  |  |  |  |  | C[C@H](c1nc(-c2cccc(C(F)(F)F)c2)no1)[C@H](N)C(=O)N1CCCC1 |  |
| > 100 µM | > 100 µM | 1.3 µM | 0.16 µM |  |  |  |  |  |  | C[C@H](c1nc(-c2ccc(Br)cc2Cl)no1)[C@H](N)C(=O)N1CCCC1 |  |
| > 100 µM | > 100 µM | 8.1 µM | 4.59 µM |  |  |  |  |  |  | C[C@H](c1nc(-c2ccc(F)cc2F)no1)[C@H](N)C(=O)N1CCCC1 |  |
| > 100 µM | > 100 µM | 4.5 µM | 4.79 µM |  |  |  |  |  |  | C[C@H](c1nc(-c2ccccc2F)no1)[C@H](N)C(=O)N1CCCC1 |  |
| > 100 µM | > 100 µM | 2.2 µM | 0.99 µM |  |  |  |  |  |  | C[C@H](c1nc(-c2ccccc2Cl)no1)[C@H](N)C(=O)N1CCCC1 |  |
| > 100 µM | > 100 µM | 24.4 µM | 0.33 µM |  |  |  |  |  |  | C[C@H](c1nc(-c2ccc(S(=O)(=O)C(F)(F)F)cc2)no1)[C@H](N)C(=O)N1CCCC1 |  |
| > 100 µM | > 100 µM | 3 µM | 0.83 µM |  |  |  |  |  |  | C[C@H](c1nc(-c2ccc(F)cc2Cl)no1)[C@H](N)C(=O)N1CCCC1 |  |
| > 100 µM | > 100 µM | 1.8 µM | 4.82 µM |  |  |  |  |  |  | C[C@H](c1nc(-c2ccccc2C(F)(F)F)no1)[C@H](N)C(=O)N1CCCC1 |  |
| > 100 µM | > 100 µM | 6 µM | 1.61 µM |  |  |  |  |  |  | C[C@H](c1nc(-c2ccc(C(F)(F)F)cc2)no1)[C@H](N)C(=O)N1CCCC1 |  |
| > 100 µM | > 100 µM | 5.7 µM | 19.7 µM |  |  |  |  |  |  | C[C@H](c1nc(-c2ccccc2)no1)[C@H](N)C(=O)N1CCCC1 |  |
| > 100 µM | > 100 µM | 5.2 µM | 1.79 µM |  |  |  |  |  |  | C[C@H](c1nc(-c2ccc(OC(F)(F)F)cc2)no1)[C@H](N)C(=O)N1CCCC1 |  |
